How the values were obtained:
NAMECs [1] = assay: RT2 Profiler PCR arrays of signaling pathway target genes; type: cell-based, human; conditions: 48-hour treatment
Experimental: The percentages of the target genes which, relative to NAMEC control cells, were inhibited, unchanged, or activated in GW627368X-treated NAMECs are presented in the plot.
To evaluate whether there is selective release of components of alternative signaling pathways, the activation and suppression of signaling pathways in GW-treated NAMECs were analyzed using RT2 Profiler PCR arrays. […] The decrease of p-Akt in GW-treated NAMECs and the enrichment of p-Akt in GW induced exosomes was reflected in inactivation of PI3K/Akt-signaling. Thus, EP4 antagonists are likely to interfere with the Akt-dependent signaling pathway by decreasing cellular p-Akt via exosome release.

NAMECs [2] = assay: Boyden chamber migration of NAMECs; type: cell-based, human; conditions: GW pre-treatment, 4 days
Experimental: FIG. 3 includes a set of images and two graphs. (A) is a set of bright-field images of NAMECs treated with vehicle, GW627368X, Dynasore (1 μM), or GW627368X plus Dynasore (0.5, 1, 1.5 μM) for 4 days. Scale bar, 100 μm. (B) is a graph showing the percentage of NAMECs treated with vehicle, GW627368X, Dynasore (1 μM), or GW627368X plus Dynasore (0.75 and 1 μM) that were resistant to 0.05% trypsin. Data are means±SEM, (n=3). ***P≤0.001. (C) is a graph showing Boyden chamber migration of NAMECs treated with vehicle (Crl), GW627368X, Dynasore (1 μM), or GW627368X plus Dynasore (0.5, 0.75, 1 μM) for 4 days. Data are means±SEM (n=3). **P≤0.005. ***P≤0.001.

[3] = test system: mesenchymal stem cells (MSCs); assay: Osteogenic, adipogenic and neural differentiation of MSCs; type: cell-based; conditions: GW-treated MSCs
Experimental: (A) and (B) show osteogenic differentiation of MSCs and EP4 antagonist GW-treated MSCs. MSCs were cultured in osteogenic differentiation medium and then stained with Alizarin Red S. Osteogenic differentiation was quantified by measuring the optical density (OD) of Alizarin Red S staining. […] MSCs were cultured in adipogenic differentiation medium. […] MSCs were cultured in neural differentiation medium for 7 or 14 days and then analyzed for the expression of neuronal marker tublin β3 and NeuN using western blotting.
GW-treated MSCs were cultured in osteogenic differentiation medium, adipogenic differentiation medium and neuron differentiation medium, respectively.

NAMEC-R cells = assay: NTA of EV release from Ras-transformed NAMEC-R cells; type: cell-based; conditions: CM-P4, 4 days; GW 1 μg/ml; SQ 120 and 240 nM
Experimental: Vesicles in the P4 fractions were counted using NTA. Data are means±SEM (n=6). ***P≤0.001; (B) The Alix, TSG101, CD63, CD81 and GAPDH exosome markers were measured in the CM-P4 fractions of NAMEC-R cells treated with vehicle (Crl), GW627368X (GW, 1 μg/ml), SQ 29,548 (SQ120/SQ240; 120 nM and 240 nM); (C) The mesenchymal marker N-cadherin, CSC markers and exosome markers were analyzed in the conditioned medium P4 fraction derived from equal numbers of vehicle-treated NAMEC-R cells (Crl), GW-treated NAMEC-R cells (GW, 1 μg/ml GW627368X for 4 days) and SQ 29,548-treated NAMEC-R cells (SQ120/SQ240; 120 nM and 240 nM for 4 days). The longer GAPDH(L) and CD81(L) exposures show the low, but detectable, presence of GAPDH and CD81 in the conditioned medium P4 fraction of vehicle-treated NAMEC-R cells.
We further investigated whether EP4 antagonism and TP receptor antagonism (as GW has partial affinity to the human TP receptor) affected EV release from transformed mammary epithelial stem cells. Four-day conditioned media of vehicle, GW-, or SQ (a TP antagonist)-treated Ras-transformed NAMEC mammary stem cells (NAMEC-R) were collected and subjected to differential ultracentrifugation to isolate EVs released by the cells. The numbers of vesicles in CM-P4 fractions were determined using NTA (FIG. 20, A). EP4 antagonism elicited release of ˜5000 vesicles per NAMEC-R cell. […]

MCF-7 cells = assay: NTA and EV protein of CM-P4 fractions of MCF-7 cells; type: cell-based, human; conditions: increasing concentrations of GW
From the text: (A) Quantification of EV/exosome release, shown as the number of particles in the CM-P4 fractions released per cell, from MCF-7 and MDA-MB-231 breast cancer cells treated with vehicle or with the indicated concentrations of GW627368X. Particles in the P4 fractions were counted using nanoparticle tracking analysis. Data are means±SEM (n=10). *P≤0.05, ***P≤0.001. (B) Quantification of the total EV protein released from MCF-7 and MDA-MB-231 cells treated with vehicle or with the indicated concentrations of GW627368X. The amounts (m) of protein present per cell in the conditioned medium P4 fractions are presented as means±SEM (n=3). *P≤0.05; (C) Protein levels in the P4 EV/exosome fractions and cell lysates, analyzed by Western blot. Culture media and cell lysates were collected from the same numbers of MCF-7 and MDA-MB-231 cells treated with vehicle or with GW627368X (GW), at the indicated concentrations, for 4 days. The P4 fractions of the culture media, containing EVs, were isolated. […]
We next examined whether blocking EP4-mediated signaling with an EP4 antagonist can elicit EV-mediated removal of CSC proteins (e.g., mesenchymal markers and stem cell markers) in the human breast carcinoma MCF-7 and MDA-MB-231 cell lines. P4 fractions from the conditioned media (CM-P4) of GW-treated MCF-7 and MDA-MB-231 cells were analyzed using NTA (FIG. 21, A). […]

In the case of `CCOc1c2c(c(OCC)c3ccccc13)C(=O)N(c1ccc(CC(=O)NS(=O)(=O)c3ccccc3)cc1)C2` [GW627368X], the “signaling pathways most inhibited” value (NAMECs [1]) is reported as “PI3K/Akt, TGF-β, Wnt and androgen pathways”, the “decrease of number of migrating cells” value (NAMECs [2]) is reported as roughly 60% and the “abilities to differentiate into osteoblasts, adipocytes or nerve cells vs non-treated MSCs” value [3] is reported as “much lowered”. The “vesicles released per cell” value (NAMEC-R cells) was roughly 5000 vesicles per cell and the “numbers of EVs released” value (MCF-7 cells) was “modestly increased”.
